Assay results: publication PMC3961306, “Comparison of the Cancer Gene Targeting and Biochemical Selectivities of All Targeted Kinase Inhibitors Approved for Clinical Use” (PLoS ONE, 2014)
Where two headings read alike, the source gives them in different places.

System: forty-four human cancer cell lines
Test: Cell proliferation assay (ATPlite, 72 hours) in the 44 cell line Oncolines panel
Assay type: cell-based
Conditions: Homo sapiens
[1] = 4-4 cell, read-out: cell panel IC50, J82
[2] = 4-4 cell, read-out: cell panel IC50, PA-1
[3] = 4-4 cell, read-out: cell panel IC50, SJCRH30
[4] = 4-4 cell, read-out: cell panel IC50, SR
[5] = 769-P, read-out: cell panel IC50, 769-P
[6] = 786-0, read-out: cell panel IC50, 786-0
[7] = A 172, read-out: cell panel IC50, A-172
[8] = A204, read-out: cell panel IC50, A-204
[9] = A498, read-out: cell panel IC50, A-498
[10] = A549, read-out: cell panel IC50, A-549
[11] = A-375, read-out: cell panel IC50, A375
[12] = A-427, read-out: cell panel IC50, A-427
[13] = ACHN, read-out: cell panel IC50, ACHN
[14] = AN3-CA, read-out: cell panel IC50, AN3 CA
[15] = AU565, read-out: cell panel IC50, AU-565
[16] = BT-20, read-out: cell panel IC50, BT-20
[17] = BT-549, read-out: cell panel IC50, BT-549
[18] = BXPC-3, read-out: cell panel IC50, BxPC-3
[19] = C-33-A, read-out: cell panel IC50, C-33 A
[20] = CAL-27, read-out: cell panel IC50, CAL 27
[21] = CCRF-CEM, read-out: cell panel IC50, CCRF-CEM
[22] = DLD-1, read-out: cell panel IC50, DLD-1
[23] = FaDu, read-out: cell panel IC50, FaDu
[24] = HCT-15, read-out: cell panel IC50, HCT-15
[25] = HCT-116, read-out: cell panel IC50, HCT-116
[26] = Hs-578T, read-out: cell panel IC50, Hs 578T
[27] = Jurkat E6.1, read-out: cell panel IC50, Jurkat E6.1
[28] = K562, read-out: cell panel IC50, K-562
[29] = LS174T, read-out: cell panel IC50, LS 174T
[30] = LoVo, read-out: cell panel IC50, LoVo
[31] = MG-63, read-out: cell panel IC50, MG-63
[32] = MOLT-4, read-out: cell panel IC50, MOLT-4
[33] = MeWo, read-out: cell panel IC50, MeWo
[34] = NCI-H82, read-out: cell panel IC50, NCI-H82
[35] = NCI-H460, read-out: cell panel IC50, NCI-H460
[36] = OVCAR-3, read-out: cell panel IC50, OVCAR-3
[37] = RPMI-7951, read-out: cell panel IC50, RPMI-7951
[38] = SHP77, read-out: cell panel IC50, SHP-77
[39] = SK-N-AS, read-out: cell panel IC50, SK-N-AS
[40] = SW48, read-out: cell panel IC50, SW48
[41] = SW480, read-out: cell panel IC50, SW480
[42] = SW-620, read-out: cell panel IC50, SW620
[43] = U-87 MG, 72 h, read-out: IC50 in cell proliferation assay (table S5 cellpanel data)

SMILES: CCN(CC)CCNC(=O)c1c(C)[nH]c(/C=C2\C(=O)Nc3ccc(F)cc32)c1C [sunitinib]
- IC50 [1]: 3.5 µM
- IC50 [2]: 1.31 µM
- IC50 [3]: 3.14 µM
- IC50 [4]: 0.527 µM
- IC50 [5]: 2.66 µM
- IC50 [6]: 2.62 µM
- IC50 [7]: 3.28 µM
- IC50 [8]: 4.08 µM
- IC50 [9]: 1.97 µM
- IC50 [10]: 2.26 µM
- IC50 [11]: 1.55 µM
- IC50 [12]: 1.06 µM
- IC50 [13]: 1.32 µM
- IC50 [14]: 1.51 µM
- IC50 [15]: 3.96 µM
- IC50 [16]: 13.2 µM
- IC50 [17]: 4.84 µM
- IC50 [18]: 2.29 µM
- IC50 [19]: 1.98 µM
- IC50 [20]: 3.08 µM
- IC50 [21]: 3.21 µM
- IC50 [22]: 3.13 µM
- IC50 [23]: 2 µM
- IC50 [24]: 2.11 µM
- IC50 [25]: 2.68 µM
- IC50 [26]: 3.48 µM
- IC50 [27]: 1.06 µM
- IC50 [28]: 2.09 µM
- IC50 [29]: 3.52 µM
- IC50 [30]: 0.962 µM
- IC50 [31]: 3.37 µM
- IC50 [32]: 0.828 µM
- IC50 [33]: 3.42 µM
- IC50 [34]: 2.28 µM
- IC50 [35]: 3.43 µM
- IC50 [36]: 8.63 µM
- IC50 [37]: 3.67 µM
- IC50 [38]: 5.7 µM
- IC50 [39]: 1.86 µM
- IC50 [40]: 3.7 µM
- IC50 [41]: 5.65 µM
- IC50 [42]: 2.54 µM
- IC50 [43]: 5.75 µM

SMILES: CN(C)C/C=C/C(=O)Nc1cc2c(Nc3ccc(F)c(Cl)c3)ncnc2cc1O[C@H]1CCOC1 [afatinib]
- IC50 [1]: 3.34 µM
- IC50 [2]: 1.9 µM
- IC50 [3]: 2.44 µM
- IC50 [4]: 0.988 µM
- IC50 [5]: 2.23 µM
- IC50 [6]: 2.72 µM
- IC50 [7]: 2.95 µM
- IC50 [8]: 2.21 µM
- IC50 [9]: 2.73 µM
- IC50 [10]: 3.16 µM
- IC50 [11]: 1.28 µM
- IC50 [12]: 2.9 µM
- IC50 [13]: 0.297 µM
- IC50 [14]: 2.78 µM
- IC50 [15]: 0.013 µM
- IC50 [16]: 4.35 µM
- IC50 [17]: 3.27 µM
- IC50 [18]: 3.69 µM
- IC50 [19]: 0.021 µM
- IC50 [20]: 0.434 µM
- IC50 [21]: 1.28 µM
- IC50 [22]: 1.71 µM
- IC50 [23]: 0.00342 µM
- IC50 [24]: 1.55 µM
- IC50 [25]: 0.935 µM
- IC50 [26]: 3.38 µM
- IC50 [27]: 0.87 µM
- IC50 [28]: 3.27 µM
- IC50 [29]: 1.31 µM
- IC50 [30]: 2.07 µM
- IC50 [31]: 2.83 µM
- IC50 [32]: 0.922 µM
- IC50 [33]: 3.77 µM
- IC50 [34]: 2.23 µM
- IC50 [35]: 2.64 µM
- IC50 [36]: 2.1 µM
- IC50 [37]: 3.58 µM
- IC50 [38]: 3.66 µM
- IC50 [39]: 2.23 µM
- IC50 [40]: 4.17 µM
- IC50 [41]: 3.64 µM
- IC50 [42]: 3.35 µM
- IC50 (U2OS, read-out: cell panel IC50, U-2 OS): 2.57 µM
- IC50 [43]: 5.02 µM
